The source made the active and inactive calls. The calls are words filed in the database; no cut-off is given here.
Experiments:
ASPC1 = assay: Antiproliferative activity against human ASPC1 cells harbouring KRAS G12D mutant assessed as reduction in cell viability incubated for 72 hrs; assay type: functional, cell-based
SW-620 = assay: Antiproliferative activity against human SW620 cells harbouring KRAS G12V mutant assessed as inhibition of cell growth incubated for 72 hrs by Luminescence based assay; assay type: functional; conditions: SW-620, 72 h
GTPase KRas [1] = target: T1, GTPase KRas (Homo sapiens, UniProt P01116, G12D); assay: Inhibition of KRas G12D mutant in human SW620 cells assessed as inhibition of ERK phosphorylation at Thr202/Tyr204 residues incubated for 3 hrs by Western blot analysis; assay type: cell-based
HT-29 = assay: Antiproliferative activity against human HT-29 cells harbouring wild-type KRAS assessed as cell growth inhibition by CellTiter-Glo assay; assay type: functional, cell-based
GTPase KRas [2] = target: T1, GTPase KRas; assay: Inhibition of KRas G12D mutant in human ASPC1 cells assessed as inhibition of ERK phosphorylation at Thr202/Tyr204 residues incubated for 3 hrs by Western blot analysis; assay type: cell-based
[3] = tested on: GTPase KRas (Homo sapiens), P01116 [G12D]; assay: Inhibition of KRas G12D mutant in human ASPC1 cells assessed as assessed as downregulation of DUSP4 at 0.05 to 300 nM incubated for 3 hrs by Western blot analysis; assay type: cell-based; conditions: dose 0.05-300 nM

SMILES | IC50 (ASPC1; Homo sapiens, ASPC1, 72 h) | IC50 (SW-620) | IC50 (ASPC1; aspc1) | also measured
N#Cc1c(N)sc2c(F)ccc(-c3c(Cl)c4c5c(nc(OC[C@@]67CCCN6C[C@H](F)C7)nc5c3F)N3CCCCC[C@@H]3CO4)c12 | 3250 nM | 347 nM |  | 
Nc1nc2c(-c3c(Cl)c4c5c(nc(OC[C@@]67CCCN6C[C@H](F)C7)nc5c3F)N3CCCCCC3CO4)ccc(F)c2s1 (stereo not given in full) | 1150 nM | 151 nM |  | 
Nc1nc2c(-c3c(Cl)c4c5c(nc(OC[C@@]67CCCN6C[C@H](F)C7)nc5c3F)N3CCCOC[C@H]3CO4)ccc(F)c2s1 | 1920 nM | 22.6 nM |  | 
Nc1nc2c(-c3c(Cl)cc4c(N5CCCOCC5)nc(OC[C@@]56CCCN5C[C@H](F)C6)nc4c3F)ccc(F)c2s1 | 8240 nM | 208 nM |  | 
N#Cc1c(N)sc2c(F)ccc(-c3c(Cl)c4c5c(nc(OC[C@@]67CCCN6C[C@H](F)C7)nc5c3F)N3CCCCC[C@H]3CO4)c12 | 354 nM | 2.6 nM |  | 
N#Cc1c(N)sc2c(F)ccc(-c3c(Cl)c4c5c(nc(OC[C@@]67CCCN6C[C@H](F)C7)nc5c3F)N3CCCOC[C@H]3CO4)c12 (single isomer, unassigned; atropisomer 1) |  |  | 8780 nM | 
N#Cc1c(N)sc2c(F)ccc(-c3c(Cl)c4c5c(nc(OC[C@@]67CCCN6C[C@H](F)C7)nc5c3F)N3CCCCCC3CO4)c12 (single isomer, unassigned; atropisomer 1) |  |  | 4000 nM | 
N#Cc1c(N)sc2c(F)ccc(-c3c(Cl)c4c5c(nc(OC[C@@]67CCCN6C[C@H](F)C7)nc5c3F)N3CCCOC[C@H]3CO4)c12 (single isomer, unassigned; atropisomer 2) [listing 1 of 2 here] |  | 0.6 nM | 378 nM | IC50 (GTPase KRas [1]): 1 nM; IC50 (HT-29): 3230 nM; IC50 (GTPase KRas [2]): 0.6 nM
N#Cc1c(N)sc2c(F)ccc(-c3c(Cl)c4c5c(nc(OC[C@@]67CCCN6C[C@H](F)C7)nc5c3F)N3CCCCCC3CO4)c12 (single isomer, unassigned; atropisomer 2) |  | 4.4 nM | 713 nM | 
N#Cc1c(N)sc2c(F)ccc(-c3c(Cl)c4c5c(nc(OC[C@@]67CCCN6C[C@H](F)C7)nc5c3F)N3CCCOC[C@H]3CO4)c12 (single isomer, unassigned; atropisomer 2) [listing 2 of 2 here] |  |  |  | Activity [3]: Active
